Data on 3 compounds can be found in US8604206B2, “Compositions for preventing and/or treating degenerative disorders of the central nervous system” (Amicus Therapeutics, Inc., priority 2009, dated 2013).

Data set [1] concerns the target recombinant human GCase (rhGCase; Cerezyme®) (Homo sapiens (Human), UniProt P04062, R534H). As to the kind of experiment: In vitro enzyme inhibition assay (4-MU-β-D-Glc substrate), inhibition constants. The data set is classed as biochemical. On the procedure: The binding affinity (defined here by Ki binding constant) of GCase for novel compounds of the present invention were empirically determined using enzyme inhibition assays. In brief, the enzyme inhibition assays used monitored the ability of a test compound to bind and prevent the hydrolysis of a fluorogenic substrate in a concentration-dependent mariner. Specifically, the enzyme activity of recombinant human GCase (rhGCase; Cerezyme®, Genzyme Corp.) was measured using the 4-methylumbelliferyl-β-D-glucopyranoside (4-MU-β-D-Glc) fluorogenic substrate in the absence or in the presence of varying amounts of each test compound. […] The enzyme inhibition assays were performed at both pH 7.0 (endoplasmic reticulum pH) and at pH 5.2 (lysosomal pH) to gain insight into the binding affinity (i.e., potency) of compounds for GCase in the endoplasmic reticulum and lysososome.
Various concentrations of test compounds were prepared in buffer “M” consisting of 50 mM sodium phosphate buffer with 0.25% sodium taurocholate at pH 7.0 and pH 5.2. Enzyme (Cerezyme®, a recombinant form of the human enzyme β-glucocerebrosidase) was also diluted in the same buffer “M” at pH 7.0 and pH 5.2. […] Five microliters of diluted enzyme was added to 15 μl of the various inhibitor concentrations or buffer “M” alone and incubated at 37° C. for 1 hour with 50 μl of the substrate preparation to assess β-glucosidase activity at pH 7.0 and pH 5.2. […] Fluorescence was measured on a plate reader for 1 sec/well using 355 nm excitation and 460 nm emission.

A further data set in a line: Rat pharmacokinetics. Format: in vivo. Conditions: male, Sprague-Dawley, plasma; for Cmax: read-out: Cmax. As for the experimental part: Pharmacokinetic (PK) data was obtained in rats to assess the bioavailability of test compound. In particular, the following PK parameters were calculated: bioavailability as measured by area under the Concentration/Time curve (AUC), fraction of dose available (% F; further defined below), clearance (CL), volume of distribution (Vd), and half-life (t½). […] Three rats were used per dosing group. Blood was collected over a 24-hr period. The time points for blood collection after intravenous administration were: 0, 2.5, 5, 10, 15, 30, 45 min, 1, 2, 4, 8, 12, and 24 hrs; time points for blood collection after p.o. administrations were: 0, 5, 15, 30, 45 min, 1, 2, 3, 4, 8, 12, and 24 hrs. Plasma samples were analyzed for compound levels by LC-MS/MS at PPD. Raw data was analyzed by non-compartmental analysis in Win-nonLin to calculate VD, % F, CL, and t1/2.

[2] abbreviates: pH 5.2, Cheng-Prusoff from IC50, read-out: Ki (μM) pH 5.2.
The mark [3] stands for this setting: pH 5.2, read-out: IC50 (μM) pH 5.2.
[4] abbreviates: pH 5.2, repeated in Table 3A, read-out: Ki pH 5.2.
Where [5] appears, read: pH 5.2, repeated in Table 3B, read-out: Ki pH 5.2.
Where [6] appears, read: pH 7.0, Cheng-Prusoff from IC50, read-out: Ki (μM) pH 7.0.
Where [7] appears, read: pH 7.0, read-out: IC50 (μM) pH 7.0.
Setting [8] is: IV, 3 mg/kg free base, AUC0-12 hr, read-out: AUClast (hr*ng/ml), AUC0-12 hr.
[9] abbreviates: IV, 3 mg/kg free base, read-out: t1/2 (converted).
The mark [10] stands for this setting: PO, 10 mg/kg free base, read-out: % F.
The mark [11] stands for this setting: PO, 10 mg/kg free base, read-out: t1/2 (converted).
[12] abbreviates: PO, 30 mg/kg free base, AUC0-24 hr, read-out: AUClast (hr*ng/ml), AUC0-24 hr.
The mark [13] stands for this setting: PO, 30 mg/kg free base, read-out: % F.
Setting [14] is: PO, 30 mg/kg free base, read-out: t1/2 (converted).
Where [15] appears, read: PO, 100 mg/kg free base, AUC0-24 hr, read-out: AUClast (hr*ng/ml), AUC0-24 hr.
Setting [16] is: PO, 100 mg/kg free base, read-out: % F.
Setting [17] is: PO, 100 mg/kg free base, read-out: t1/2 (converted).
The mark [18] stands for this setting: intravenous, oral, summary of Tables 4A-D, read-out: half-life.
The mark [19] stands for this setting: po, summary of Tables 4A-D, read-out: oral bioavailability.

Structures are written as SMILES. Read-outs that look alike come from different tables or passages of the source.

recombinant human GCase (rhGCase; Cerezyme®), sequence (P04062 40-536 R534H limits assumed): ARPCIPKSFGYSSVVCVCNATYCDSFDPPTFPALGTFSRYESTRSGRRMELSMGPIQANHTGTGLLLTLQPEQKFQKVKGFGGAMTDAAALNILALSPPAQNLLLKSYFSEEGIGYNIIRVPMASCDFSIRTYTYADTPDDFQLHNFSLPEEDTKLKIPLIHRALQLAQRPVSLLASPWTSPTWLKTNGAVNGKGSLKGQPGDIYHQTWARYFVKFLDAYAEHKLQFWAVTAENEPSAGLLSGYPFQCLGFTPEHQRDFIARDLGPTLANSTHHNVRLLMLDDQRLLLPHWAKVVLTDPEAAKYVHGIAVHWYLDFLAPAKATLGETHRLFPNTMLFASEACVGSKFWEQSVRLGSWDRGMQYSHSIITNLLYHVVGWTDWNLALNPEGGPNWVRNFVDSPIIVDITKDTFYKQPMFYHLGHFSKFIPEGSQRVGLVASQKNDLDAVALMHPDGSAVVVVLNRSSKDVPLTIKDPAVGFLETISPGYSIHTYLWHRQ

Take `CC[C@@H](F)[C@H]1CNC[C@@H](O)[C@@H]1O.Cl` [(3R,4R,5S)-5-((R)-1-fluoropropyl)-piperidine-3,4-diol hydrochloride]: the inhibitory constant (Ki) (commonly the equilibrium dissociation constant of an inhibitor or competing ligand from its target) in data set [1] (setting [2]) stood at 0.121 ± 0.0026 µM; in data set [1] (setting [4]), 0.121 ± 0.0026 µM; in data set [1] (setting [5]), 0.121 ± 0.0026 µM; in data set [1] (setting [6]) it was 0.031 ± 0.0015 µM. Also, the 50% inhibitory concentration (IC50) (commonly the midpoint of a concentration-inhibition curve) in data set [1] (setting [3]) is 0.291 ± 0.006 µM; in data set [1] (setting [7]), 0.06 ± 0.0029 µM.

With `O[C@@H]1[C@@H](Cc2ccccc2)CNC[C@H]1O` [(3R,4R,5S)-5-benzyl-piperidine-3,4-diol], the Vd – broadly, the apparent volume that relates the amount in the body to the concentration in plasma or blood – in the data set “Rat pharmacokinetics” (IV, 3 mg/kg free base) was 12.6 ± 1.79 L/kg. Moreover, in the data set “Rat pharmacokinetics” (IV, 3 mg/kg free base), the clearance (as a rule, the volume of plasma or blood freed of the substance per unit of time) was 85.8 mL/min/kg. Further, the AUC(0-t) was found to be 592 ± 60.9 ng·h/mL in the data set “Rat pharmacokinetics” (setting [8]); 1200 ± 46.4 ng·h/mL in the data set “Rat pharmacokinetics” (PO, 10 mg/kg free base, AUC0-24 hr, read-out: AUClast (hr*ng/ml), AUC0-24 hr); 3690 ± 71.5 ng·h/mL in “Rat pharmacokinetics” (setting [12]); 13500 ± 2180 ng·h/mL in the data set “Rat pharmacokinetics” (setting [15]). The peak concentration (Cmax) (as a rule, the peak of the concentration-time curve) amounted to 969 ± 104 ng/mL in the data set “Rat pharmacokinetics” (IV, 3 mg/kg free base); 641 ± 48.7 ng/mL in “Rat pharmacokinetics” (PO, 10 mg/kg free base); 1700 ± 133 ng/mL in the data set “Rat pharmacokinetics” (PO, 30 mg/kg free base); 7140 ± 1360 ng/mL in “Rat pharmacokinetics” (PO, 100 mg/kg free base). Moreover, the half-life in the data set “Rat pharmacokinetics” (setting [9]) is 1.7 ± 1.5 h; in the data set “Rat pharmacokinetics” (setting [11]), 3.86 ± 0.6 h; in “Rat pharmacokinetics” (setting [14]), 3.8 ± 0.19 h; in “Rat pharmacokinetics” (setting [17]) it was 2.9 ± 0.11 h; in “Rat pharmacokinetics” (setting [18]) it was 1 to 4 h. Besides, the bioavailability is 61.7 ± 2.4% in the data set “Rat pharmacokinetics” (setting [10]), 62.3 ± 1.2% in “Rat pharmacokinetics” (setting [13]), 68.3 ± 10.8% in “Rat pharmacokinetics” (setting [16]) and 50 to 100% in “Rat pharmacokinetics” (setting [19]). In addition, the Ki in data set [1] (setting [2]) stood at 0.273 ± 0.012 µM; in data set [1] (setting [4]), 0.273 ± 0.012 µM; in data set [1] (setting [5]) it was 0.273 ± 0.012 µM; in data set [1] (setting [6]) it was 0.067 ± 0.005 µM. For the same compound, the half-inhibitory concentration (IC50) in data set [1] (setting [3]) turned out to be 0.659 ± 0.028 µM; in data set [1] (setting [7]), 0.127 ± 0.01 µM.

On to `Cl.O[C@H]1[C@H](O)CNC[C@@H]1C(F)F` [Cmpd 6, (3R,4R,5S)-5-(Difluoromethyl)piperidine 3,4-diol Hydrochloride], for which the volume of distribution (Vd) in the data set “Rat pharmacokinetics” (IV, 3 mg/kg free base) was 2.61 L/kg. Moreover, the clearance in “Rat pharmacokinetics” (IV, 3 mg/kg free base) was 25.9 mL/min/kg. Further, the AUC(0-t) in the data set “Rat pharmacokinetics” (setting [8]) turned out to be 2040 ng·h/mL; in “Rat pharmacokinetics” (PO, 10 mg/kg free base, AUC0-12 hr, read-out: AUClast (hr*ng/ml), AUC0-12 hr) it was 6710 ng·h/mL; in “Rat pharmacokinetics” (setting [12]), 21700 ng·h/mL; in “Rat pharmacokinetics” (setting [15]), 79400 ng·h/mL. Besides, the peak concentration (Cmax) in “Rat pharmacokinetics” (IV, 3 mg/kg free base) is 2320 ng/mL; in “Rat pharmacokinetics” (PO, 10 mg/kg free base), 3360 ng/mL; in “Rat pharmacokinetics” (PO, 30 mg/kg free base), 10000 ng/mL; in the data set “Rat pharmacokinetics” (PO, 100 mg/kg free base) it was 33200 ng/mL. Besides, the half-life in the data set “Rat pharmacokinetics” (setting [9]) was 1.1 h; in “Rat pharmacokinetics” (setting [11]) it was 2.58 h; in the data set “Rat pharmacokinetics” (setting [14]), 2.75 h; in “Rat pharmacokinetics” (setting [17]), 2.41 h; in the data set “Rat pharmacokinetics” (setting [18]), 1 to 4 h. The bioavailability is 106% in “Rat pharmacokinetics” (setting [10]), 101% in the data set “Rat pharmacokinetics” (setting [13]), 121% in the data set “Rat pharmacokinetics” (setting [16]) and 50 to 100% in the data set “Rat pharmacokinetics” (setting [19]).
